From patent publication US9765069B2, “Antimicrobial compounds” (OXFORD UNIVERSITY INNOVATION LIMITED, priority 2012, dated 2017)
≈ marks a conversion by molar mass, not a printed value.

Experiments:
P9 = assay: MIC determination (bacteria), strain P9; type: cell-based, S. pneumoniae; details: 2-fold broth dilution
Procedure: (§1) MIC determination (bacteria); MICs were determined based on Clinical and Laboratory Standards Institute (CLSI) methodology (Methods for dilution antimicrobial susceptibility tests for bacteria that grow aerobically; Approved Standard—seventh edition. 2006, M7-A7, CLSI, Wayne Pa.) by a 2-fold broth dilution technique in Mueller Hinton (pH7.4 Biorad). For S. pneumoniae, the medium was supplemented with 2.5% laked horse blood. For H. influenzae, the medium was haemophilus test medium (H.T.M.). Overnight cultures were diluted to obtain the final inoculum of 10^5 cfu/well. Incubation was 37° C. overnight in ambient air. The MIC was defined as the lowest concentration which inhibited all visual growth and expressed in μg/ml. For each bacterial species, all of the molecules were tested in the same experiment in order to give a head-to-head comparison.

P1 = assay: MIC determination (bacteria), strain P1; type: cell-based, S. pneumoniae; details: 2-fold broth dilution
Procedure: as §1

S4 = assay: MIC determination (bacteria), strain S4; type: cell-based, S. aureus; details: 2-fold broth dilution
Procedure: as §1

H4 = assay: MIC determination (bacteria), strain H4; type: cell-based, H. influenzae; details: haemophilus test medium
Procedure: as §1

S1 = assay: MIC determination (bacteria), strain S1; type: cell-based, S. aureus; details: 2-fold broth dilution
Procedure: as §1

E1 = assay: MIC determination (bacteria), strain E1; type: cell-based, enterococcus; details: 2-fold broth dilution
Procedure: as §1

S26 = assay: MIC determination (bacteria), strain S26; type: cell-based, S. aureus; details: 2-fold broth dilution
Procedure: as §1

[1] = test system: S2 (S. aureus 2, MRSA in vivo); assay: MIC determination (bacteria), strain S2; type: cell-based; details: 2-fold broth dilution
Procedure: as §1

E2 = assay: MIC determination (bacteria), strain E2; type: cell-based, enterococcus; details: 2-fold broth dilution
Procedure: as §1

H3 = assay: MIC determination (bacteria), strain H3; type: cell-based, H. influenzae; details: haemophilus test medium
Procedure: as §1

P9B = assay: MIC determination (bacteria), strain P9B; type: cell-based, S. pneumoniae; details: 2-fold broth dilution
Procedure: as §1

[2] = test system: human embryonic kidney 293 cells; assay: in vitro toxicities against human embryonic kidney 293 cells; type: cell-based; details: human embryonic kidney 293 cells
Text: (§2) These properties can be determined according to techniques that are well known in the art.

S. aureus membrane = assay: In vitro activity in depolarization of S. aureus membrane; type: cell-based; details: read-out: DEP (IC50)
Text: as §2

[3] = test system: human peripheral blood cells; assay: in vitro toxicities human peripheral blood cells; type: cell-based; details: human peripheral blood cells
Text: as §2

[4] = test system: mammalian_red blood cell membrane; assay: In vitro mammalian red blood cell membrane lysis activity; type: cell-based; details: Active or inactive at 100 μM
Text: as §2

Row | Structure (SMILES) | MIC P9 (P9; Table 2) | MIC P1 (P1; Table 2) | MIC S4 (S4; Table 2) | MIC H4 (H4; Table 2 and its footnote f) | MIC S1 (S1; Table 2) | MIC E1 (E1; Table 2) | MIC S26 (S26; Table 2) | MIC S2 ([1]; Table 2) | MIC E2 (E2; Table 2) | MIC P9 (P9; Table 1) | MIC P1 (P1; Table 1) | MIC S4 (S4; Table 1) | MIC H4 (H4; Table 1) | MIC S1 (S1; Table 1) | MIC E1 (E1; Table 1) | MIC S26 (S26; Table 1) | MIC S2 ([1]; Table 1) | MIC E2 (E2; Table 1) | MIC H3 (H3; Table 1) | MIC P9B (P9B; Table 1) | further results
1 | O=C1CCN(C(=O)c2ccccc2)C(=O)C1=C(O)CCCCC1CCCCC1 [19c] | 1 µg/mL (≈ 2.61 µM) | 1 µg/mL (≈ 2.61 µM) | 2 µg/mL (≈ 5.22 µM) | 8 µg/mL (≈ 20.9 µM) | 1 µg/mL (≈ 2.61 µM) | 2 µg/mL (≈ 5.22 µM) | 2 µg/mL (≈ 5.22 µM) | 2 µg/mL (≈ 5.22 µM) | 2 µg/mL (≈ 5.22 µM) | – | – | – | – | – | – | – | – | – | – | – | MIC H3 (H3; Table 2): 16 µg/mL (≈ 41.7 µM); MIC P9B (P9B; Table 2): 4 µg/mL (≈ 10.4 µM)
2 | O=C1CCN(C(=O)c2ccccc2)C(=O)/C1=C(\O)CCc1ccc(-c2ccccc2C(F)(F)F)o1 [19e] | 2 µg/mL (≈ 4.14 µM) | 2 µg/mL (≈ 4.14 µM) | 4 µg/mL (≈ 8.27 µM) | 16 µg/mL (≈ 33.1 µM) | 4 µg/mL (≈ 8.27 µM) | 2 µg/mL (≈ 4.14 µM) | 4 µg/mL (≈ 8.27 µM) | 4 µg/mL (≈ 8.27 µM) | 2 µg/mL (≈ 4.14 µM) | – | – | – | – | – | – | – | – | – | – | – | MIC H3 (H3; Table 2): >64 µg/mL; MIC P9B (P9B; Table 2): 8 µg/mL (≈ 16.5 µM)
3 | CCCCCCCC=CC(=O)N1C(=O)C(=C(C)O)C(=O)C1CC(C)C (centres unmarked) [23a] | – | – | – | – | – | – | – | – | – | 1 µg/mL (≈ 2.86 µM) | 2 µg/mL (≈ 5.72 µM) | 8 µg/mL (≈ 22.9 µM) | 4 µg/mL (≈ 11.4 µM) | 8 µg/mL (≈ 22.9 µM) | 8 µg/mL (≈ 22.9 µM) | 16 µg/mL (≈ 45.8 µM) | 8 µg/mL (≈ 22.9 µM) | 4 µg/mL (≈ 11.4 µM) | 64 µg/mL (≈ 183 µM) | 4 µg/mL (≈ 11.4 µM) | Hek293 (LD50, μM) [2]: 90.9 µM; IC50 (S. aureus membrane): 88 µM; PMBC (LD50, μM) [3]: 90.9 µM; RBC membrane lysis activity (active/inactive) [4]: Inactive^d
4 | CCCCCCCC=CC(=O)N1C(=O)C(=C(O)CCCCC)C(=O)C1CC(C)C (centres unmarked) [23c] | – | – | – | – | – | – | – | – | – | <0.06 µg/mL | <0.06 µg/mL | 0.5 µg/mL (≈ 1.23 µM) | – | 0.25 µg/mL (≈ 0.616 µM) | 0.25 µg/mL (≈ 0.616 µM) | 0.5 µg/mL (≈ 1.23 µM) | 0.5 µg/mL (≈ 1.23 µM) | 0.12 µg/mL (≈ 0.296 µM) | >64 µg/mL | 2 µg/mL (≈ 4.93 µM) | Hek293 (LD50, μM) [2]: 30.3 µM; IC50 (S. aureus membrane): 19.6 µM; PMBC (LD50, μM) [3]: 30.3 µM; RBC membrane lysis activity (active/inactive) [4]: Inactive^d
5 | CCCCCCCCCCC(O)=C1C(=O)C(CCSC)N(C(C)=O)C1=O (centres unmarked) [24a] | – | – | – | – | – | – | – | – | – | 0.25 µg/mL (≈ 0.652 µM) | 0.5 µg/mL (≈ 1.3 µM) | 4 µg/mL (≈ 10.4 µM) | 4 µg/mL (≈ 10.4 µM) | 0.5 µg/mL (≈ 1.3 µM) | 0.5 µg/mL (≈ 1.3 µM) | 8 µg/mL (≈ 20.9 µM) | 2 µg/mL (≈ 5.21 µM) | 0.5 µg/mL (≈ 1.3 µM) | 8 µg/mL (≈ 20.9 µM) | 2 µg/mL (≈ 5.21 µM) | –
6 | CCCCCC(O)=C1C(=O)C(CCSC)N(C(=O)C2CCCCC2)C1=O (centres unmarked) [24d] | – | – | – | – | – | – | – | – | – | 2 µg/mL (≈ 5.24 µM) | 2 µg/mL (≈ 5.24 µM) | 2 µg/mL (≈ 5.24 µM) | 4 µg/mL (≈ 10.5 µM) | 2 µg/mL (≈ 5.24 µM) | 2 µg/mL (≈ 5.24 µM) | 4 µg/mL (≈ 10.5 µM) | 4 µg/mL (≈ 10.5 µM) | 2 µg/mL (≈ 5.24 µM) | 32 µg/mL (≈ 83.9 µM) | 4 µg/mL (≈ 10.5 µM) | –
7 | CCCCCCCCCCCCCC(O)=C1C(=O)CCN(C(=O)c2ccccc2)C1=O [25c] | – | – | – | – | – | – | – | – | – | 1 µg/mL (≈ 2.34 µM) | 1 µg/mL (≈ 2.34 µM) | 1 µg/mL (≈ 2.34 µM) | 32 µg/mL (≈ 74.8 µM) | 2 µg/mL (≈ 4.68 µM) | 2 µg/mL (≈ 4.68 µM) | 4 µg/mL (≈ 9.35 µM) | 2 µg/mL (≈ 4.68 µM) | 1 µg/mL (≈ 2.34 µM) | >64 µg/mL | 8 µg/mL (≈ 18.7 µM) | –
8 | CCCCCCC(=O)N1CC(=O)C(=C(O)CC2CCCCC2)C1=O [27b] | 0.5 µg/mL (≈ 1.49 µM) | 1 µg/mL (≈ 2.98 µM) | 4 µg/mL (≈ 11.9 µM) | 0.5 µg/mL (≈ 1.49 µM) | 2 µg/mL (≈ 5.96 µM) | 2 µg/mL (≈ 5.96 µM) | 4 µg/mL (≈ 11.9 µM) | 4 µg/mL (≈ 11.9 µM) | 2 µg/mL (≈ 5.96 µM) | – | – | – | – | – | – | – | – | – | – | – | MIC H3 (H3; Table 2): 4 µg/mL (≈ 11.9 µM); MIC P9B (P9B; Table 2): 2 µg/mL (≈ 5.96 µM)
